Data set [1] has as its target JAK3 (a.a. 781-1124) (Homo sapiens (Human), UniProt P52333). Briefly: JAK3 enzyme activity assay (SRCtide phosphorylation, Caliper). In kind it is biochemical. The following applies: 1 uM ATP; read-out: JAK3 Inhibition IC50.
Data set [2] can be described thus: GI Exposure PK in Mice. In kind it is in vivo. Particulars: mouse, male BalbC mice, oral dose of 5 mg/kg. The procedure: The test compound was wetted with ˜0.025% of Tween-20 and triturated in a mortar and pestle, then slowly 0.5% of methyl cellulose was added to make up the final volume to 7.25 mL. The BalbC test animals were subjected to anesthesia induced with a mixture of 5% isoflurane and 0.8-1.5 L/min 02 gas flow. The formulated test compound was then dosed via oral gavage. At various time points (0.5, 1, 2, 4, 6 and 8 h) blood samples (˜100 μL) were collected from portal vein (pre-hepatic) followed by cardiac puncture (circulating) into tubes containing 2% w/v aqueous K2 EDTA solution as per time points. Post blood sampling, the gastro intestine (GI) tissues were collected from the mice at the same time points. The GI tissue was dissected into different parts as duodenum, jejunum, ileum and colon. The separated tissues were washed by flushing with PBS via oral gavage needle to remove GI content. Post collection all the tissues were blotted, weighed and homogenized with PBS buffer (pH 7.4). The blood samples were immediately placed on ice and centrifuged within 30 min at 4° C. for 5 min at 8,000 rpm to obtain plasma. Plasma was transferred by pipettes to pre-labelled centrifuge tubes and immediately transferred to −80° C. until bioanalysis. Tissue samples were placed in pre-labelled container and all samples were kept in −80° C. until homogenized. The homogenate was stored immediately in −80° C. until bioanalysis was conducted. Study samples were thawed to room temperature and 50 μL of sample was aliquoted into pre-labeled vials. To these was added 400 μL of 100% acetonitrile containing an IS (100 ng/mL; warfarin, tolbutamide and loperamide). The vials were mixed well, vortexed for 5 min, followed by centrifugation for 5 min at 14000 rpm at 4° C. The supernatant was separated and same was injected on LC-MS/MS. Plasma and GI tissue levels of test compound were determined by LC-MS analysis using a standard curve in the text matrix. Individual concentration-time data were analyzed using Phoenix WinNonlin (Version 8.1) by the non-compartmental analysis (NCA) method.

The target in data set [3] is JAK2 (Homo sapiens (Human), UniProt O60674). The data set is described as follows: JAK2 enzyme activity assay (Thermo Fisher SelectScreen, Z-lyte). In kind it is biochemical. Particulars: read-out: JAK2 Inhibition IC50. The gist of the method: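 Z-lyte FRET kinase assay: 0.12-0.5 ng JAK2 with […] Tyr 06 peptide in 50 mM HEPES pH 7.5, 0.01% BRIJ-35, 10 mM MgCl2, 1 mM EGTA, 1 h reaction before development reagent. 11-point dose-response from […] to 0.34 nM, 2% DMSO; IC50 from 4-parameter fit of emission ratio.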

[4] abbreviates: portal vein plasma (pre-hepatic), Portal plasma.

JAK2, sequence (O60674 whole entry): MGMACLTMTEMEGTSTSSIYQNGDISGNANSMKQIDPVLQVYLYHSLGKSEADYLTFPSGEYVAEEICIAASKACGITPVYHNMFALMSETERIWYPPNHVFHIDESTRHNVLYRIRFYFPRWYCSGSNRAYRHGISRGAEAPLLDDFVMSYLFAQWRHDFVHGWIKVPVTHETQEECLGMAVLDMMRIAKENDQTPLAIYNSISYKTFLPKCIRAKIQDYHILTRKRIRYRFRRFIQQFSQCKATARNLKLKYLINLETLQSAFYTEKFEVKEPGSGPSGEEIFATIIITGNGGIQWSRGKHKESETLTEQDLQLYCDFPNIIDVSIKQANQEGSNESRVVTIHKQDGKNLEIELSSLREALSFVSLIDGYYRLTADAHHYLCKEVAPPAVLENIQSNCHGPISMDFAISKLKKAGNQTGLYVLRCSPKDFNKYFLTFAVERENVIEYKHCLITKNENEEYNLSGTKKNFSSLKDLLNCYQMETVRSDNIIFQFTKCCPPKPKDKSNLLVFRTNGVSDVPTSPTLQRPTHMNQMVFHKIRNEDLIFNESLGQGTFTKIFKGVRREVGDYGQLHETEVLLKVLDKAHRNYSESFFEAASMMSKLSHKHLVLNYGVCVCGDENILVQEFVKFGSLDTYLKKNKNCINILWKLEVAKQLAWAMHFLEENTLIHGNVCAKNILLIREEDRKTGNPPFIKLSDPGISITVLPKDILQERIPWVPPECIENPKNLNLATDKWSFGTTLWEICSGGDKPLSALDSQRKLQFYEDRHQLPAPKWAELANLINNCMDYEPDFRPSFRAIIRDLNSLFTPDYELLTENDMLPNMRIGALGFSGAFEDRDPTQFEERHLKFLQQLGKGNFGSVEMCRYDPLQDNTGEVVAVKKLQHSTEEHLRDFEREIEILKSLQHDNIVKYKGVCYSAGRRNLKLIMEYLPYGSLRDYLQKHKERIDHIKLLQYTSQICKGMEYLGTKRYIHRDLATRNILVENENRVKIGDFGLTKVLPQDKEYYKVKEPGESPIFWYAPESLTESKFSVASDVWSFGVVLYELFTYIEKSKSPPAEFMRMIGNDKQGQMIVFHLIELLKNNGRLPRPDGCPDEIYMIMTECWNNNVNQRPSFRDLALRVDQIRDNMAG
JAK3 (a.a. 781-1124), sequence (P52333 781-1124): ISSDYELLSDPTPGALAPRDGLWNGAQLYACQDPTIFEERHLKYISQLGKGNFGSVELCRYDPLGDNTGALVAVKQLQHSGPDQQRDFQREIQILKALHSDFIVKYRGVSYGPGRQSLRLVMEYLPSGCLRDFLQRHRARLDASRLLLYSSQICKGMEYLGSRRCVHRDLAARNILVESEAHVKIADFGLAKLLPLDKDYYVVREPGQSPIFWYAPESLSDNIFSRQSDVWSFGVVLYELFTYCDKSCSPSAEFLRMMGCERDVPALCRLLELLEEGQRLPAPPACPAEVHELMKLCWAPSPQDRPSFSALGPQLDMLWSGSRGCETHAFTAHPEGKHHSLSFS

With `CNC(=O)c1coc(-c2cnc3[nH]ccc3c2N[C@@H]2C[C@H](C)CN(C(=O)CC#N)C2)n1` [Example 31, 2-(4-(((3R,5S)-1-(2-cyanoacetyl)-5-methylpiperidin-3-yl)amino)-1H-pyrrolo[2,3-b]pyridin-5-yl)-N-methyloxazole-4-carboxamide], the IC50 in data set [1] and in data set [3] was no more than 10 nM in each case. Further, the Tmax in data set [2] (circulating plasma (cardiac puncture), Circulating plasma) is 4 h; in data set [2] (setting [4]), 0.5 h; in data set [2] (Colon) it was 4 h; in data set [2] (Duodenum), 0.5 h; in data set [2] (Ileum) it was 2 h; in data set [2] (Jejunum), 0.5 h. For the same compound, the Cmax in data set [2] (circulating plasma (cardiac puncture), Circulating plasma, two of three subjects, third BLQ) came to 9.2 ng/mL; in data set [2] (setting [4]) it was 11.3 ng/mL; in data set [2] (Colon) it was 1290 ng/g; in data set [2] (Duodenum), 2880 ng/g; in data set [2] (Ileum), 43800 ng/g; in data set [2] (Jejunum), 37000 ng/g. The exposure (AUC) in data set [2] (setting [4]) was found to be 17.2 ng·h/mL; in data set [2] (Colon) it was 6820 ng·h/mL; in data set [2] (Duodenum), 4660 ng·h/mL; in data set [2] (Ileum), 82500 ng·h/mL; in data set [2] (Jejunum), 57400 ng·h/mL.

For orientation: IC50 means the point on the concentration scale where inhibition reaches its midpoint. One may read the Tmax as the time at which the peak concentration occurs. In general, Cmax refers to the peak of the concentration-time curve. A word on the AUC: it is concentration integrated over time. A high value points to high exposure.

The record behind these values is patent US11420966B2 (ACLARIS THERAPEUTICS, INC., priority 2019, dated 2022).
